For experiment [1], the target named is recombinant human Mcl-1 (residues 171-327) / Bim interaction (Homo sapiens (Human), UniProt Q07820). In words: biochemical. Format: binding. The conditions noted are these: read-out: Mcl-1 HTRF IC50. (Time-resolved FRET reads energy transfer from a long-lived donor to a nearby acceptor.)
The subject of experiment [2] is human multiple myeloma cell line, OPM-2. In words: Cell viability assay (OPM-2 10 FBS), CellTiter-Glo. Type of experiment: cell-based. The conditions noted are these: Homo sapiens, OPM-2, 16 h. A digest of the protocol: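 Cells were seeded at 3000 cells/well in RPMI 1640 with 10% FBS and exposed to serially diluted compounds for 16 h at 37 °C, 5% CO2.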
On the technique in general: In ATP-based viability assays light output follows the ATP content of the culture.

[3] abbreviates: 0.1 nM Mcl-1(171-327), 0.05 nM biotin-Bim (51-76).
Where [4] appears, read: read-out: OPM-2 10% FBS IC50 IP, OPM-2 cells, 10% FBS, 16 h incubation.
Setting [5] is: TR-FRET, Mcl-1(171-327) / biotin-Bim (51-76).
[6] abbreviates: read-out: OPM-2 10% FBS IC50 IP, OPM-2 cells, 10% FBS, 16 h, CellTiter-Glo.

Molecules are shown by their SMILES. Like-named read-outs stand apart in the source and are kept apart here.

Sequence of recombinant human Mcl-1 (residues 171-327) / Bim interaction (Q07820 171-327): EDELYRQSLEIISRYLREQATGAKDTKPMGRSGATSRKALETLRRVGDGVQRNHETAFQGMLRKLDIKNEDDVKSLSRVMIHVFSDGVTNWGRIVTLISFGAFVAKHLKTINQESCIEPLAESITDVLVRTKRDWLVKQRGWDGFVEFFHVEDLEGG

Take `CO[C@]1(CN2CCN3CCOC[C@@H]3C2)/C=C/C[C@H](C)[C@@H](C)S(=O)(=O)NC(=O)c2ccc3c(n2)N(C[C@@H]2CC[C@H]21)C[C@@]1(CCCc2cc(Cl)ccc21)CO3` [Example 185, (1S,3′R,6′R,7′R,8′E,11′S,12′R)-6-chloro-7′-((9aS)-hexahydropyrazino[2,1-c][1,4]oxazin-8(1H)-ylmethyl)-7′-methoxy-11′,12′-dimethyl-3,4-dihydro-2H,15′H-spiro[naphthalene-1,22′-[20]oxa[13]thia[1,14,25]triazatetracyclo [14.7.2.0~3,6~.0~19,24~]pentacosa[8,16,18,24]tetraen]-15′-one 13′,13′-dioxide]: the IC50 in experiment [1] (setting [3]) worked out at 0.17 nM; in experiment [2] (setting [4]), 1060 nM.

Regarding `CO[C@@]1(CN2CCN(c3ccccc3)CC2)/C=C/C[C@H](C)[C@@H](C)S(=O)(=O)NC(=O)c2ccc3c(c2)N(C[C@@H]2CC[C@H]21)C[C@@]1(CCCc2cc(Cl)ccc21)CO3` [Example 251, (1S,3′R,6′R,7′S,8′E,11′S,12′R)-6-chloro-7′-methoxy-11′,12′-dimethyl-7′-((4-phenyl-1-piperazinyl)methyl)-3,4-dihydro-2H,15′H-spiro[naphthalene-1,22′-[20]oxa[13]thia[1,14]diazatetracyclo [14.7.2.0~3,6~.0~19,24~]pentacosa[8,16,18,24]tetraen]-15′-one 13′,13′-dioxide], the IC50 was 2.26 nM in experiment [1] (setting [3]) and 3870 nM in experiment [2] (setting [4]).

Turning to `CO[C@]1(CCN2CC(C)(N(C)C)C2)/C=C/C[C@H](C)[C@@H](C)S(=O)(=O)NC(=O)c2ccc3c(c2)N(C[C@@H]2CC[C@H]21)C[C@@]1(CCCc2cc(Cl)ccc21)CO3` [Example 100453, (1S,3′R,6′R,7′R,8′E,11′S,12′R)-6-chloro-7′-(2-(3-(dimethylamino)-3-methyl-1-azetidinyl)ethyl)-7′-methoxy-11′,12′-dimethyl-3,4-dihydro-2H,15′H-spiro[naphthalene-1,22′-[20]oxa[13]thia[1,14]diazatetracyclo [14.7.2.0~3,6~.0~19,24~]pentacosa[8,16,18,24]tetraen]-15′-one 13′,13′-dioxide], the IC50 in experiment [1] (setting [5]) was determined as 0.927 nM; in experiment [2] (setting [6]) it was 2930 nM.

Take `COCC[C@@H]1[C@@H](C)C/C=C/[C@](CN2CCN3CCCC[C@@H]3C2)(OC)[C@@H]2CC[C@H]2CN2C[C@@]3(CCCc4cc(Cl)ccc43)COc3ccc(nc32)C(=O)NS1(=O)=O` [Example 21, (1S,3′R,6′R,7′S,8′E,11′S,12′R)-6-chloro-7′-methoxy-12′-(2-methoxyethyl)-11′-methyl-7′-((9aR)-octahydro-2H-pyrido[1,2-a]pyrazin-2-ylmethyl)-3,4-dihydro-2H, 15′H-spiro[naphthalene-1,22′-[20]oxa[13]thia[1,14,25]triazatetracyclo[14.7.2.0˜3,6˜.0˜19,24˜]pentacosa[8,16,18,24]tetraen]-15′-one 13′,13′-dioxide]: the values for the IC50 in experiment [1] (setting [3]) and in experiment [2] (setting [4]) were 0.156 nM and 47 nM, respectively.

As to `CO[C@@]1(c2cnccn2)/C=C/C[C@H](C)[C@@H](C)S(=O)(=O)NC(=O)c2ccc3c(c2)N(C[C@@H]2CC[C@H]21)C[C@@]1(CCCc2cc(Cl)ccc21)CO3` (single isomer, unassigned) [Example 100379], the IC50 in experiment [1] (setting [5]) amounted to 0.06 nM; in experiment [2] (setting [6]) it was 71 nM.

As to `CCCN1CCN(C[C@@]2(OCC)/C=C/C[C@H](C)[C@@H](C)S(=O)(=O)NC(=O)c3ccc4c(c3)N(C[C@@H]3CC[C@H]32)C[C@@]2(CCCc3cc(Cl)ccc32)CO4)CC1` [Example 98, (1S,3′R,6′R,7′R,8′E,11′S,12′R)-6-chloro-7′-ethoxy-11′,12′-dimethyl-7′-((4-propyl-1-piperazinyl)methyl)-3,4-dihydro-2H,15′H-spiro[naphthalene-1,22′-[20]oxa[13]thia[1,14]diazatetracyclo [14.7.2.0~3,6~.0~19,24~]pentacosa[8,16,18,24]tetraen]-15′-one 13′,13′-dioxide], the IC50 turned out to be 0.373 nM in experiment [1] (setting [3]) and 183 nM in experiment [2] (setting [4]).

Regarding `COCCN1CCN(C[C@]2(OC)/C=C/C[C@H](C)[C@@H](C)S(=O)(=O)NC(=O)c3ccc4c(c3)N(C[C@@H]3CC[C@H]32)C[C@@]2(CCCc3cc(Cl)ccc32)CO4)CC1` [Example 195, (1S,3′R,6′R,7′S,8′E,11′S,12′R)-6-chloro-7′-methoxy-7′-((4-(2-methoxyethyl)-1-piperazinyl)methyl)-11′,12′-dimethyl-3,4-dihydro-2H,15′H-spiro[naphthalene-1,22′-[20]oxa[13]thia[1,14]diazatetracyclo [14.7.2.0~3,6~.0~19,24~]pentacosa[8,16,18,24]tetraen]-15′-one 13′,13′-dioxide], the IC50 in experiment [1] (setting [3]) is 0.214 nM; in experiment [2] (setting [4]), 65 nM.

Turning to `C[C@@H]1[C@@H](C)CCC[C@](C)([C@H]2OC[C@@H](N(C)C)CO2)[C@@H]2CC[C@H]2CN2C[C@@]3(CCCc4cc(Cl)ccc43)COc3ccc(cc32)C(=O)NS1(=O)=O` [Example 100328, (1S,3′R,6′R,7′S,11′S,12′R)-6-chloro-7′-(cis-5-(dimethylamino)-1,3-dioxan-2-yl)-7′,11′,12′-trimethyl-3,4-dihydro-2H,15′H-spiro[naphthalene-1,22′-[20]oxa[13]thia[1,14]diazatetracyclo [14.7.2.0~3,6~.0~19,24~]pentacosa[16,18,24]trien]-15′-one 13′,13′-dioxide], the results for the IC50 in experiment [1] (setting [5]) and in experiment [2] (setting [6]) were 0.261 nM and 180 nM, respectively.

With `C[C@@H]1[C@@H](C)C/C=C/[C@](O)(c2cnccn2)[C@@H]2CC[C@H]2CN2C[C@@]3(CCCc4cc(Cl)ccc43)COc3ccc(cc32)C(=O)NS1(=O)=O` [Example 100383, (1S,3′R,6′R,7′R,8′E,11′S,12′R)-6-chloro-7′-hydroxy-11′,12′-dimethyl-7′-(2-pyrazinyl)-3,4-dihydro-2H,15′H-spiro[naphthalene-1,22′-[20]oxa[13]thia[1,14]diazatetracyclo [14.7.2.0~3,6~.0~19,24~]pentacosa[8,16,18,24]tetraen]-15′-one 13′,13′-dioxide], the IC50 in experiment [1] (setting [5]) worked out at 0.264 nM; in experiment [2] (setting [6]), 3430 nM.

Take `CC(C)CO[C@]1(CN2CCN3CCOC[C@@H]3C2)/C=C/C[C@H](C)[C@@H](C)S(=O)(=O)NC(=O)c2ccc3c(c2)N(C[C@@H]2CC[C@H]21)C[C@@]1(CCCc2cc(Cl)ccc21)CO3` [Example 356, (1S,3′R,6′R,7′R,8′E,11′S,12′R)-6-chloro-7′-((9aS)-hexahydropyrazino[2,1-c][1,4]oxazin-8(1H)-ylmethyl)-11′,12′-dimethyl-7′-(2-methylpropoxy)-3,4-dihydro-2H,15′H-spiro[naphthalene-1,22′-[20]oxa[13]thia[1,14]diazatetracyclo [14.7.2.0~3,6~.0~19,24~]pentacosa[8,16,18,24]tetraen]-15′-one 13′,13′-dioxide]: the IC50 in experiment [1] (setting [3]) is 0.11 nM; in experiment [2] (setting [4]), 367 nM.

Regarding `C[C@@H]1[C@@H](C)CCC[C@](O)(C[C@@H]2CCCN(C)C2)[C@@H]2CC[C@H]2CN2C[C@@]3(CCCc4cc(Cl)ccc43)COc3ccc(cc32)C(=O)NS1(=O)=O` (single isomer, unassigned) [Example 100400], the IC50 was 0.838 nM in experiment [1] (setting [5]) and 1320 nM in experiment [2] (setting [6]).

On to `C[C@@H]1[C@@H](C)CCC[C@@]2(CCO2)[C@@H]2CC[C@H]2CN2C[C@@]3(CCCc4cc(Cl)ccc43)COc3ccc(cc32)C(=O)NS1(=O)=O` [Example 100228, (1S,3′R,6′R,7′R,11′S,12′R)-6-chloro-11′,12′-dimethyl-3,4-dihydro-2H,15′H-dispiro[naphthalene-1,22′-[20]oxa[13]thia[1,14]diazatetracyclo [14.7.2.0~3,6~.0~19,24~]pentacosa[16,18,24]triene-7′,2″-oxetan]-15′-one 13′,13′-dioxide], for which the IC50 in experiment [1] (setting [5]) was 0.558 nM; in experiment [2] (setting [6]) it was 3300 nM.

In the case of `CO[C@@]1(CN2CCN(c3cnccn3)CC2)/C=C/C[C@H](C)[C@@H](C)S(=O)(=O)NC(=O)c2ccc3c(c2)N(C[C@@H]2CC[C@H]21)C[C@@]1(CCCc2cc(Cl)ccc21)CO3` [Example 257, (1S,3′R,6′R,7′S,8′E,11′S,12′R)-6-chloro-7′-methoxy-11′,12′-dimethyl-7′-((4-(2-pyrazinyl)-1-piperazinyl)methyl)-3,4-dihydro-2H,15′H-spiro[naphthalene-1,22′-[20]oxa[13]thia[1,14]diazatetracyclo [14.7.2.0~3,6~.0~19,24~]pentacosa[8,16,18,24]tetraen]-15′-one 13′,13′-dioxide], the IC50 in experiment [1] (setting [3]) is 0.403 nM; in experiment [2] (setting [4]), 981 nM.

For the compound `C[C@@H]1[C@@H](C)CCC[C@](O)(CC#N)[C@@H]2CC[C@H]2CN2C[C@@]3(CCCc4cc(Cl)ccc43)COc3ccc(cc32)C(=O)NS1(=O)=O` (single isomer, unassigned) [Example 100080], the figures for the IC50 in experiment [1] (setting [5]) and in experiment [2] (setting [6]) were 0.61 nM and 818 nM, respectively.

In the case of `CO[C@@]1(CN2CC(N3CCOCC3)C2)/C=C/C[C@H](C)[C@@H](C)S(=O)(=O)NC(=O)c2ccc3c(c2)N(C[C@@H]2CC[C@H]21)C[C@@]1(CCCc2cc(Cl)ccc21)CO3` [Example 258, (1S,3′R,6′R,7′S,8′E,11′S,12′R)-6-chloro-7′-methoxy-11′,12′-dimethyl-7′-((3-(4-morpholinyl)-1-azetidinyl)methyl)-3,4-dihydro-2H,15′H-spiro[naphthalene-1,22′-[20]oxa[13]thia[1,14]diazatetracyclo [14.7.2.0~3,6~.0~19,24~]pentacosa[8,16,18,24]tetraen]-15′-one 13′,13′-dioxide], the 50% inhibitory concentration (IC50) in experiment [1] (setting [3]) stood at 0.069 nM; in experiment [2] (setting [4]) it was 95 nM.

Broadly, the IC50 is the concentration at which inhibition is half-maximal.

Source of the values: patent US10821115B2, “Compounds that inhibit Mcl-1 protein” (priority 2017, dated 2020).
